What is called MIC is the lowest concentration that inhibits growth of the organism.

The results in this text go back to patent US20160271118A1, “PHARMACEUTICAL COMPOSITIONS COMPRISING ANTIBACTERIAL AGENTS” (priority 2013, published 2016).

Common to all, as to assay type: cell-based, Acinetobacter baumannii
One assay deals with A. baumannii NCTC 13301. Briefly: Broth microdilution MIC (CLSI), A. baumannii NCTC 13301. As to conditions: for MIC: Acinetobacter baumannii, NCTC13301; for MIC of Sulbactam in combination of compound: compound at 4 mcg/ml; for MIC of Cefepime in combination of compound: compound at 8 mcg/ml. As to the method: (§1) The broth microdilution Minimum Inhibitory Concentration (MIC) studies were conducted as per the CLSI recommendations (Clinical and Laboratory Standards Institute (CLSI), Performance Standards for Antimicrobial Susceptibility Testing, 20th Informational Supplement, M 100-S20, Volume 30, No. 1, 2010). The media utilized was Brain Heart Infusion broth (BD, USA). In brief, 50 mcl of serial double dilutions of the antibacterial agents in Brain Heart Infusion media were dispensed in 96 well microtiter plate. 50 mcl of culture suspension was added to each pre dispensed drug dilution such that the final bacterial inoculum density was 2-8×10^5 CFU/ml. The plates were incubated for 20-24 hours at 35±2° C. and observed visually for growth or no growth based on the turbidity. Three specific compounds generally represented by a general Formula (I) were used and are as follows: • 1. (2S,5R)-7-oxo-N-[(3S)-pyrrolidin-3-yloxy]-6-(sulfooxy)-1,6-diazabicyclo[3.2.1]octane-2-carboxamide (Compound A),
(§2) The results of antibacterial activity of various compounds when used alone and in combinations according to the inventions are shown in Tables 1 and 2 respectively. The strains of A. baumannii used for the study were those which produced carbapenem hydrolyzing class D beta-lactamase enzymes (OXA 23, OXA 24 or OXA 27). […] In general, the MIC values of Sulbactam and Cefepime reduced when these were combined with Compounds A, B and C.
(Broth dilution looks for growth in wells or tubes with falling amounts of substance.)

For the next assay, the system named is A. baumannii NCTC 13302. The experiment in a line: Broth microdilution MIC (CLSI), A. baumannii NCTC 13302. As to conditions: for MIC: Acinetobacter baumannii, NCTC13302; for MIC of Sulbactam in combination of compound: compound at 4 mcg/ml; for MIC of Cefepime in combination of compound: compound at 8 mcg/ml. As to the method:
as §1, §2

The next assay deals with A. baumannii. Briefly: Broth microdilution MIC (CLSI), A. baumannii strains overall. As to conditions: used alone; for MIC: Acinetobacter baumannii, A. baumannii strains producing OXA 23, OXA 24 or OXA 27. As to the method:
as §1, §2

The test system of a further assay is A. baumannii NCTC 13304. Briefly: Broth microdilution MIC (CLSI), A. baumannii NCTC 13304. As to conditions: for MIC: Acinetobacter baumannii, NCTC13304; for MIC of Sulbactam in combination of compound: compound at 4 mcg/ml; for MIC of Cefepime in combination of compound: compound at 8 mcg/ml. As to the method:
as §1, §2

Setting [1] is: compound alone, A. baumannii NCTC 13301 (OXA 51, OXA 23), read-out: MIC.
[2] abbreviates: compound alone, A. baumannii NCTC 13302 (OXA 51, OXA 24), read-out: MIC.
Where [3] appears, read: compound alone, A. baumannii NCTC 13304 (OXA 51, OXA 27), read-out: MIC.
The mark [4] stands for this setting: A. baumannii NCTC 13301 (OXA 51, OXA 23).
[5] abbreviates: A. baumannii NCTC 13302 (OXA 51, OXA 24).
The mark [6] stands for this setting: A. baumannii NCTC 13304 (OXA 51, OXA 27).

Read-outs that look alike come from different tables or passages of the source.

With `CO/N=C(\C(=O)N[C@@H]1C(=O)N2C(C(=O)[O-])=C(C[N+]3(C)CCCC3)CS[C@H]12)c1csc(N)n1` [Cefepime, reference compound], the MIC is above 32 µg/mL with A. baumannii NCTC 13301 (setting [1]), 32 µg/mL in the assay with A. baumannii NCTC 13302 (setting [2]) and 32 µg/mL in the assay on A. baumannii NCTC 13304 (setting [3]). Further, in the assay with A. baumannii, the “antibacterial activity against A. baumannii” value (“antibacterial activity” for short) is listed as “poor antibacterial activity”.

`O=C(NO[C@H]1CCNC1)[C@@H]1CC[C@@H]2CN1C(=O)N2OS(=O)(=O)O` [Compound A, (2S,5R)-7-oxo-N-[(3S)-pyrrolidin-3-yloxy]-6-(sulfooxy)-1,6-diazabicyclo[3.2.1]octane-2-carboxamide]: the MIC in the assay on A. baumannii NCTC 13301 (setting [1]), with A. baumannii NCTC 13302 (setting [2]), in the assay on A. baumannii and in the assay on A. baumannii NCTC 13304 (setting [3]) was above 128 µg/mL throughout. The “MIC of Sulbactam in combination of compound” value (“MIC of Sulbactam” for short) with A. baumannii NCTC 13301 (setting [4]) is 4 µg/mL; in the assay with A. baumannii NCTC 13302 (setting [5]), 8 µg/mL; in the assay on A. baumannii NCTC 13304 (setting [6]), 8 µg/mL. Moreover, the “MIC of Cefepime in combination of compound” value (shortened to “MIC of Cefepime”) in the assay with A. baumannii NCTC 13301 (setting [4]), in the assay on A. baumannii NCTC 13302 (setting [5]) and in the assay with A. baumannii NCTC 13304 (setting [6]) was 16 µg/mL each time.

As to `O=C(NOC[C@@H]1CCCN1)[C@@H]1CC[C@@H]2CN1C(=O)N2OS(=O)(=O)O` [Compound B, (2S,5R)-7-oxo-N-[(2S)-pyrrolidin-2-ylmethyloxy]-6-(sulfooxy)-1,6-diazabicyclo[3.2.1]octane-2-carboxamide], the MIC in the assay on A. baumannii NCTC 13301 (setting [1]), with A. baumannii NCTC 13302 (setting [2]), in the assay with A. baumannii and with A. baumannii NCTC 13304 (setting [3]) was above 128 µg/mL each time. For the same molecule, the “MIC of Sulbactam” value with A. baumannii NCTC 13301 (setting [4]), with A. baumannii NCTC 13302 (setting [5]) and in the assay on A. baumannii NCTC 13304 (setting [6]) was 4 µg/mL each time. Moreover, the entries for the “MIC of Cefepime” value in the assay on A. baumannii NCTC 13301 (setting [4]), in the assay with A. baumannii NCTC 13302 (setting [5]) and in the assay with A. baumannii NCTC 13304 (setting [6]) were 16 µg/mL, 16 µg/mL and 8 µg/mL, respectively.

Regarding `O=C(NOC[C@@H]1CCCCN1)[C@@H]1CC[C@@H]2CN1C(=O)N2OS(=O)(=O)O` [Compound C, (2S,5R)-7-oxo-N-[(2S)-piperidine-2-ylmethyloxy]-6-(sulfooxy)-1,6-diazabicyclo[3.2.1]octane-2-carboxamide], the MIC with A. baumannii NCTC 13301 (setting [1]), in the assay with A. baumannii NCTC 13302 (setting [2]), with A. baumannii and with A. baumannii NCTC 13304 (setting [3]) was above 128 µg/mL throughout. Also, the “MIC of Sulbactam” value in the assay on A. baumannii NCTC 13301 (setting [4]) amounted to 4 µg/mL; with A. baumannii NCTC 13302 (setting [5]) it was 8 µg/mL; with A. baumannii NCTC 13304 (setting [6]) it was 8 µg/mL. For the same molecule, the figures for the “MIC of Cefepime” value in the assay with A. baumannii NCTC 13301 (setting [4]), in the assay on A. baumannii NCTC 13302 (setting [5]) and in the assay on A. baumannii NCTC 13304 (setting [6]) were 32 µg/mL, 16 µg/mL and 8 µg/mL, respectively.

Consider `C[C@@H](O)[C@H]1C(=O)N2C(C(=O)O)=C(S[C@@H]3CN[C@H](C(=O)N(C)C)C3)[C@H](C)[C@H]12` [Meropenem, reference compound], for which the results for the MIC with A. baumannii NCTC 13301 (setting [1]), in the assay with A. baumannii NCTC 13302 (setting [2]) and with A. baumannii NCTC 13304 (setting [3]) were 32 µg/mL, above 32 µg/mL and above 32 µg/mL, respectively. Further, the “antibacterial activity” value with A. baumannii is on record as “poor antibacterial activity”.

Take `CC1(C)[C@H](C(=O)O)N2C(=O)C[C@H]2S1(=O)=O` [Sulbactam, reference compound]: the values for the MIC with A. baumannii NCTC 13301, in the assay with A. baumannii NCTC 13302 and with A. baumannii NCTC 13304 were 8 µg/mL, 16 µg/mL and 32 µg/mL, respectively. Also, the “antibacterial activity” value in the assay with A. baumannii is reported as “poor antibacterial activity”.
